Source: US20100075972A1, “AGENT FOR TREATMENT OF MULTIPLE SCLEROSIS” (Kowa Co., Ltd., priority 2007, published 2010)

Columns and labels:
[1] = system: experimental autoimmune encephalomyelitis model; assay: experimental autoimmune encephalomyelitis mouse model, symptom scores; assay type: in vivo, C57BL/6 mice
Protocol: The experimental autoimmune encephalomyelitis model is established by immunizing a mouse with myelin protein (i.e., myelin-sheath-constituting protein), thereby causing T-cell-mediated autoimmune inflammation in the central nervous system.
Seven-week-old female C57BL/6 mice (Charles River Laboratories Japan, Inc.) were employed. A sensitizing emulsion for causing the mice to develop experimental autoimmune encephalomyelitis was prepared by mixing myelin oligodendrocyte glycoprotein (MOG) 35-55 (Alexis Biochemical) with an equiamount of complete Freund's adjuvant H37Ra (DIFCO) so that the MOG concentration was 2 mg/mL, followed by homogenization under ice cooling by means of Handy Micro Homogenizer (product of Microtec Co., Ltd.). The thus-prepared emulsion (0.1 mL) was intradermally administered to each mouse at its tail base for initial sensitization. On the same day, pertussis toxin dissolved in saline (500 ng/0.3 mL) was intravenously injected to the tail. Two days after initial sensitization, in a manner similar to that described above, pertussis toxin (500 ng/0.3 mL) was intravenously injected for booster. Drug A was orally administered (30 mg/kg) twice a day in the morning (9:00 to 11:00) and in the evening (15:30 to 17:30) from the day following the initial sensitization to 42 days after sensitization.
The drugs were evaluated from the condition of experimentally created autoimmune encephalomyelitis according to the following ratings:
score 1: limp tail or abnormal gait;
score 2: limp tail and abnormal gait;
score 3: paralysis of one limb;
score 4: paralysis of two or more limbs; and
In FIGS. 1 and 2 and Table 1, the data for each group (10 mice) are represented by average value±standard error (non-parametric Dunnett's test).

F4/80 mRNA = F4/80 mRNA expression in the spinal cord of experimental autoimmune encephalomyelitis mice (real-time PCR); assay type: in vivo; conditions: day 42, spinal cord of EAE mice of Example 1, corrected by ribosomal RNA
Source text: (§1) On day 42, the spinal cord was removed from the mice employed in Example 1, and total RNA was recovered by use of ISOGEN (Nippon Gene Co., Ltd.). For comparison, similarly, the spinal cord was extirpated from unsensitized normal mice, and was employed for the below-described quantitative determination. cDNA was synthesized from the thus-obtained total RNA by use of a reverse transcriptase, and the amount of mRNA of the following gene (F4/80, TNF-α, IL-1β, or IL-6) was quantitatively determined by means of an ABI PRISM 7900HT system (Applied Biosystems) through real-time PCR employing a TaqMan probe according to the protocol of Applied Biosystems. Meanwhile, the amount of ribosomal RNA was determined, and employed for correction.

TNF-α mRNA = TNF-α mRNA expression in the spinal cord of experimental autoimmune encephalomyelitis mice (real-time PCR); assay type: in vivo; conditions: day 42, spinal cord of EAE mice of Example 1, corrected by ribosomal RNA
Source text: as §1

IL-1β mRNA = IL-1β mRNA expression in the spinal cord of experimental autoimmune encephalomyelitis mice (real-time PCR); assay type: in vivo; conditions: day 42, spinal cord of EAE mice of Example 1, corrected by ribosomal RNA
Source text: as §1

IL-6 mRNA = IL-6 mRNA expression in the spinal cord of experimental autoimmune encephalomyelitis mice (real-time PCR); assay type: in vivo; conditions: day 42, spinal cord of EAE mice of Example 1, corrected by ribosomal RNA
Source text: as §1

[2] = system: interleukin-1β production; conditions: as disclosed in WO 99/25697; cited from earlier work
[3] = oral administration of drug A 30 mg/kg twice a day

CSc1ccc(-c2nn(Cc3ccccc3)c(=O)cc2-c2ccc(Cl)cc2)cc1 [Drug A, 2-Benzyl-5-(4-chlorophenyl)-6-[4-(methylthio)phenyl]-2H-pyridazin-3-one]
Incidence rate, symptoms corresponding to score 2 or worse ([1]; EAE mice, 10 per group, Drug A 30 mg/kg orally twice a day to day 42, IFN-β 10,000 IU/individual subcutaneously every other day): 8/10
death case during the experiment (score 5) ([1]; EAE mice, 42 days after sensitization, Drug A 30 mg/kg orally twice a day, IFN-β 10,000 IU/individual s.c. every other day): no death case was observed
Days required for onset, symptoms corresponding to score 2 or worse ([1]; EAE mice, average ± standard error, Drug A 30 mg/kg orally twice a day, IFN-β 10,000 IU/individual subcutaneously every other day): 22.4 ± 1.5 days
experimental autoimmune encephalomyelitis scores (FIG. 1) [1, 3]: ameliorated to almost the same extent as in the case of IFN-β
maximum score of experimental autoimmune encephalomyelitis symptoms (FIG. 2) [1, 3]: tended to be reduced
onset of symptoms corresponding to score 2 or worse (in words) [1, 3]: tended to be delayed
amount of expression of mRNA of F4/80 in spinal cord (F4/80 mRNA): found to be reduced
expression of TNF-α mRNA in spinal cord (TNF-α mRNA): found to be reduced
expression of IL-1β mRNA in spinal cord (IL-1β mRNA): found to be reduced
expression of IL-6 mRNA in spinal cord (IL-6 mRNA): found to be reduced
interleukin-1β production inhibitory effect [2]: excellent
